Results as given in patent publication US20140294856A1, “COMBINATION TREATMENT COMPRISING A HDAC6 INHIBITOR AND AN AKT INHIBITOR” (priority 2011, published 2014).
Values after ≈ are worked out from the molar mass of the structure shown.

Tests used:
ABC transporters = assay: Expression of ABC transporters (protein and mRNA) in tumours; assay type: in vivo, mice; conditions: 14 days of treatment
caco-2 cells = assay: caco-2 transwell permeability assay
IGROV-1 = assay: Phospho-AKT levels by western blotting; assay type: cell-based; conditions: ovarian cancer cell line IGROV-1
[1] = system: panel of 19 cancer cell lines; assay: Growth inhibition, SRB assay, 72 hours; assay type: cell-based
HCT116 xenograft = assay: Differential gene expression, affymetrix human genome array; assay type: in vivo, mice
SH-SY5Y = assay: Growth inhibition, SRB assay, 72 hours; assay type: cell-based; conditions: SH-SY5Y neuroblastoma
HCT116 cells [2] = assay: Acetylated PTEN and PTEN expression; assay type: cell-based, human
Experimental: FIG. 12. HDAC-C1A treatment is associated with an increase of phopsho-AKT that can be reversed by PI3K/AKT/mTOR inhibitors. […] Similarly, Phospho-Pras 40 seems to increase following treatment with HDAC-C1A. Densitometry data could reinforce this statement (ratio between the total form and the Phospho form of Pras40 that decreases at 24 hours). […] No difference could be seen in endometrial cancer cell line, […]. C. […] E. BEZ-235 can fully reverse the increase of Phospho-AKT mediated by HDAC-C1A in HCT-116 cells. BEZ-235 and HDAC-C1A were co-incubated at the indicated time and concentrations.
FIG. 17. A. Dose and time impact of Tubastatin A on acetylated form of tubulin and histones H3 and H4 and on phospho-AKT levels that could be reversed with BEZ-235 in HCT-116 cells. […] HCT116 were immunoprecipitation with PTEN and stained with HDAC1 or HDAC6, immunoprecipitation with HDAC6 and stained with PTEN. No HDAC1 could have been detected in contrast with HDAC6. There was no effect of the different inhibitors on the different protein levels.
PTEN protein expression was not altered. In vivo, on the gene array, the mRNA levels of PTEN were not altered in HCT116 xenograft model following treatment with HDAC-C1A after 1 and 14 days when compared with vehicle treated group (FIG. 7).
We have shown that HDAC-C1A is associated with increased acetylation of α-tubulin, acetyl HSP90 and acetyl PTEN with only a minor effect on the regulation of the genes (less than 0.7% of the genes have been de-regulated after 14 days of treatment in vivo). We believe that the acetylation of PTEN, via the inhibition of HDAC6, leads to an increase of P-AKT. […] No effect of BEZ235 could be seen on the acetylated status of α-tubulin and histones H3 and H4.

A2780 cells = assay: Growth inhibition (GI50); assay type: cell-based, human
HCT116 cells [3] = assay: Growth inhibition (GI50); assay type: cell-based, human
Source text: Different treatment scheduling are shown. […] The results are mean of n=6.

[4] = 14 days, 40 mg/kg every other day

## CC(/C=C/C(=O)NO)=C\c1ccc(NS(=O)(=O)c2ccc(N(CCCl)CCCl)cc2)cc1 [HDAC-C1A]
ABC transporters
  expression of ABC transporters vs vehicle: No difference
caco-2 cells; Caco-2
  permeability across caco-2 cells: relatively good permeability
  substrate of the ABC transporters: non substrate
caco-2 cells; caco-2 cells
  permeability (PappA-B): 5.1 ×10⁻⁶ cm/s
caco-2 cells; ratio greater than 3 = actively effluxed
  PappB-A/PappA-B ratio: 2.8
IGROV-1
  P-AKT levels: increased
[1]
  mean GI50: 2 ± 0.4 µg/mL
HCT116 xenograft; 24 hours, 40 mg/kg
  number of genes deregulated (of 20 000 tested): 20 genes
  number of genes up-regulated: 17
HCT116 xenograft; 14 days of treatment
  ALDH1 up-regulation: ~1.6 fold
  Gasdermin D up-regulation: ~1.5 fold
  K AZ up-regulation: ~1.5 fold
  KLK3 down-regulation: ~1.5 fold
  RAD23B up-regulation: ~1.8 fold
  SYNDECAN-2 down-regulation: ~1.7 fold
  UNG up-regulation: ~1.7 fold
HCT116 xenograft; [4]
  number of genes deregulated by at least 1.5 fold: 132 genes
  share of genes deregulated: < 0.7%
HCT116 xenograft; after 1 and 14 days
  mRNA levels of PTEN vs vehicle: not altered
SH-SY5Y
  GI50: 0.09 µg/mL (≈ 0.181 µM)
HCT116 cells [2]
  PTEN protein expression: not altered
HCT116 cells [2]; 4 h and 24 h, 1 μM and 10 μM
  acetyl form of PTEN: dose and time dependent increase
A2780 cells
  GI50: 700 nM
HCT116 cells [3]
  GI50: 3700 nM
